Assay results reported in article PMC6576746, “Rational discovery of dual-indication multi-target PDE/Kinase inhibitor for precision anti-cancer therapy using structural systems pharmacology” (PLoS Computational Biology, 2019).

Legend:
Assay in all cases: biochemical
Set-up in all cases: DiscoverX KinomeScan competition binding assay across human kinases; per cent of control at 10 and 100 uM
[1] = target: WEE2 (Homo sapiens, UniProt P0C1S8); details: competition binding, % of control; read-out: Percent Control (100 uM Levosimendan)
How it was run: (§1)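 KinomeScan competition binding was run across a human kinase panel at 10 μM and 100 μM levosimendan. Results are %control = (test − positive control)/(negative control − positive control) × 100.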

[2] = target: T1, YANK3 (Homo sapiens, UniProt Q86UX6); details: competition binding, % of control; read-out: Percent Control (100 uM Levosimendan)
T1 construct: gene STK32C
How it was run: as §1

[3] = target: T2, ERK2 (Homo sapiens, UniProt P28482); details: competition binding, % of control; read-out: Percent Control (100 uM Levosimendan)
T2 construct: gene MAPK1
How it was run: as §1

[4] = target: RIOK2 (Homo sapiens, UniProt Q9BVS4); details: competition binding, % of control
How it was run: as §1

[5] = target: AXL (Homo sapiens, UniProt P30530); details: competition binding, % of control; read-out: Percent Control (100 uM Levosimendan)
How it was run: as §1

[6] = target: PKN2 (Homo sapiens, UniProt Q16513); details: competition binding, % of control
How it was run: as §1

[7] = target: CDKL2 (Homo sapiens, UniProt Q92772); details: competition binding, % of control; read-out: Percent Control (100 uM Levosimendan)
How it was run: as §1

[8] = target: MET(M1250T) (Homo sapiens, UniProt P08581, M1250T); details: competition binding, % of control; read-out: Percent Control (100 uM Levosimendan)
How it was run: as §1

[9] = target: HIPK3 (Homo sapiens, UniProt Q9H422); details: competition binding, % of control; read-out: Percent Control (100 uM Levosimendan)
How it was run: as §1

[10] = target: MYO3A (Homo sapiens, UniProt Q8NEV4); details: competition binding, % of control; read-out: Percent Control (100 uM Levosimendan)
How it was run: as §1

[11] = target: T3, ERK1 (Homo sapiens, UniProt P27361); details: competition binding, % of control; read-out: Percent Control (100 uM Levosimendan)
T3 construct: gene MAPK3
How it was run: as §1

[12] = target: MAP3K4 (Homo sapiens, UniProt Q9Y6R4); details: competition binding, % of control; read-out: Percent Control (100 uM Levosimendan)
How it was run: as §1

[13] = target: AURKB (Homo sapiens, UniProt Q96GD4); details: competition binding, % of control
How it was run: as §1

[14] = target: CAMK4 (Homo sapiens, UniProt Q16566); details: competition binding, % of control; read-out: Percent Control (100 uM Levosimendan)
How it was run: as §1

[15] = target: FLT4 (Homo sapiens, UniProt P35916); details: competition binding, % of control
How it was run: as §1

[16] = target: PIK3CA(E545A) (Homo sapiens, UniProt P42336, E545A); details: competition binding, % of control; read-out: Percent Control (100 uM Levosimendan)
How it was run: as §1

[17] = target: BLK (Homo sapiens, UniProt P51451); details: competition binding, % of control
How it was run: as §1

[18] = target: T4, MEK2 (Homo sapiens, UniProt P36507); details: competition binding, % of control; read-out: Percent Control (100 uM Levosimendan)
T4 construct: gene MAP2K2
How it was run: as §1

[19] = target: ROS1 (Homo sapiens, UniProt P08922); details: competition binding, % of control; read-out: Percent Control (100 uM Levosimendan)
How it was run: as §1

[20] = read-out: Percent Control (10 uM Levosimendan)
[21] = read-out: Percent Control (100 uM Levosimendan)

Sequence of PKN2 (Q16513 whole entry): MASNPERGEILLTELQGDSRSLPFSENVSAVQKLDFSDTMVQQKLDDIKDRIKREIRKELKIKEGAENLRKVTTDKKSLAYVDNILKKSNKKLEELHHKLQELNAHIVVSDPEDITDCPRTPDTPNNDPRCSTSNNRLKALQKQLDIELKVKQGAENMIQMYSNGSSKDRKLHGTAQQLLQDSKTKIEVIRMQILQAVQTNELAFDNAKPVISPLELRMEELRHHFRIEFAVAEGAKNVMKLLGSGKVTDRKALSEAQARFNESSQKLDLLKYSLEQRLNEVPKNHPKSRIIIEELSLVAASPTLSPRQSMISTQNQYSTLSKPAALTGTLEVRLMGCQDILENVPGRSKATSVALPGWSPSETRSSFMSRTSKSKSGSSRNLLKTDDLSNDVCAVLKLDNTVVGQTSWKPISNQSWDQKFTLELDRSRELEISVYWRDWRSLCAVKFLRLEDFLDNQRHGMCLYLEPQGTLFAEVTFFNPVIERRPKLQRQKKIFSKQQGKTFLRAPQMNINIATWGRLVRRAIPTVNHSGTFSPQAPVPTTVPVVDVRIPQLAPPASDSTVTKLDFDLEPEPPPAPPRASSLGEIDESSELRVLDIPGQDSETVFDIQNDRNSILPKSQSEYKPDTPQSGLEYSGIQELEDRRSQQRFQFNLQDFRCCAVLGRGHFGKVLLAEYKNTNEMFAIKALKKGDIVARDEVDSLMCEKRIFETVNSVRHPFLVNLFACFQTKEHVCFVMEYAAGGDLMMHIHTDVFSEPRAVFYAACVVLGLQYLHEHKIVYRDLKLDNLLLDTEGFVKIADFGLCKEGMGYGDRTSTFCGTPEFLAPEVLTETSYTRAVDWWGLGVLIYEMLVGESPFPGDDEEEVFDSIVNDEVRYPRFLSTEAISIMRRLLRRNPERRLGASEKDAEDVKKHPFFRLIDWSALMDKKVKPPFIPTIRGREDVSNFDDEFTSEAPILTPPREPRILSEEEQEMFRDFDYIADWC
Sequence of RIOK2 (Q9BVS4 whole entry): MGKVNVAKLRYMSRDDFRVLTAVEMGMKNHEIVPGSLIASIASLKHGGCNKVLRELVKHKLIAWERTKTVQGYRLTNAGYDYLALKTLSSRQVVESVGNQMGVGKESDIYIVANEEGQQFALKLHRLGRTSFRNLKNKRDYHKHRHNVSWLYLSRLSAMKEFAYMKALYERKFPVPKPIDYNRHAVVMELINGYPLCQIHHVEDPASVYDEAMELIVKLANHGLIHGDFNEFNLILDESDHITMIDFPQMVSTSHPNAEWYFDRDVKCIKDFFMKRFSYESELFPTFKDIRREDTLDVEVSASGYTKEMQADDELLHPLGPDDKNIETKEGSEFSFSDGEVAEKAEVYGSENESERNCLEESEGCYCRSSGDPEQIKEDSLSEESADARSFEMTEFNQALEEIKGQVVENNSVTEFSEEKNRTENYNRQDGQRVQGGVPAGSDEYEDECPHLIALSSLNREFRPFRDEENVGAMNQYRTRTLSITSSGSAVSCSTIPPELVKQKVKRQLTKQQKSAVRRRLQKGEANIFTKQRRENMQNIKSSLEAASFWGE
Sequence of BLK (P51451 whole entry): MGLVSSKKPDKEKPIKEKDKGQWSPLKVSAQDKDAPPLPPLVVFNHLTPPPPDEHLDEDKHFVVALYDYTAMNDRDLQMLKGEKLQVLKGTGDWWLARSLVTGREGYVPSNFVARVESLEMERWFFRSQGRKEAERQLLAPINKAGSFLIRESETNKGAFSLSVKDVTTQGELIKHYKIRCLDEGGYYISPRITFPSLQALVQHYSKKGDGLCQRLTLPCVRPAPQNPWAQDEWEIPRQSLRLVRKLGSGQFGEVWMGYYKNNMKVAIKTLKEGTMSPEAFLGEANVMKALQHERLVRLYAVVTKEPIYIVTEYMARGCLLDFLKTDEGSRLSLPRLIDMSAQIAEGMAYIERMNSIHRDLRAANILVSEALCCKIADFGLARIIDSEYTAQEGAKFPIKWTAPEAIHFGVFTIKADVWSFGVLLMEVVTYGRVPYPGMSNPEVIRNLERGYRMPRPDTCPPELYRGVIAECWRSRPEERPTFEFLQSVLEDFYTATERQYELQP
Sequence of FLT4 (P35916 whole entry): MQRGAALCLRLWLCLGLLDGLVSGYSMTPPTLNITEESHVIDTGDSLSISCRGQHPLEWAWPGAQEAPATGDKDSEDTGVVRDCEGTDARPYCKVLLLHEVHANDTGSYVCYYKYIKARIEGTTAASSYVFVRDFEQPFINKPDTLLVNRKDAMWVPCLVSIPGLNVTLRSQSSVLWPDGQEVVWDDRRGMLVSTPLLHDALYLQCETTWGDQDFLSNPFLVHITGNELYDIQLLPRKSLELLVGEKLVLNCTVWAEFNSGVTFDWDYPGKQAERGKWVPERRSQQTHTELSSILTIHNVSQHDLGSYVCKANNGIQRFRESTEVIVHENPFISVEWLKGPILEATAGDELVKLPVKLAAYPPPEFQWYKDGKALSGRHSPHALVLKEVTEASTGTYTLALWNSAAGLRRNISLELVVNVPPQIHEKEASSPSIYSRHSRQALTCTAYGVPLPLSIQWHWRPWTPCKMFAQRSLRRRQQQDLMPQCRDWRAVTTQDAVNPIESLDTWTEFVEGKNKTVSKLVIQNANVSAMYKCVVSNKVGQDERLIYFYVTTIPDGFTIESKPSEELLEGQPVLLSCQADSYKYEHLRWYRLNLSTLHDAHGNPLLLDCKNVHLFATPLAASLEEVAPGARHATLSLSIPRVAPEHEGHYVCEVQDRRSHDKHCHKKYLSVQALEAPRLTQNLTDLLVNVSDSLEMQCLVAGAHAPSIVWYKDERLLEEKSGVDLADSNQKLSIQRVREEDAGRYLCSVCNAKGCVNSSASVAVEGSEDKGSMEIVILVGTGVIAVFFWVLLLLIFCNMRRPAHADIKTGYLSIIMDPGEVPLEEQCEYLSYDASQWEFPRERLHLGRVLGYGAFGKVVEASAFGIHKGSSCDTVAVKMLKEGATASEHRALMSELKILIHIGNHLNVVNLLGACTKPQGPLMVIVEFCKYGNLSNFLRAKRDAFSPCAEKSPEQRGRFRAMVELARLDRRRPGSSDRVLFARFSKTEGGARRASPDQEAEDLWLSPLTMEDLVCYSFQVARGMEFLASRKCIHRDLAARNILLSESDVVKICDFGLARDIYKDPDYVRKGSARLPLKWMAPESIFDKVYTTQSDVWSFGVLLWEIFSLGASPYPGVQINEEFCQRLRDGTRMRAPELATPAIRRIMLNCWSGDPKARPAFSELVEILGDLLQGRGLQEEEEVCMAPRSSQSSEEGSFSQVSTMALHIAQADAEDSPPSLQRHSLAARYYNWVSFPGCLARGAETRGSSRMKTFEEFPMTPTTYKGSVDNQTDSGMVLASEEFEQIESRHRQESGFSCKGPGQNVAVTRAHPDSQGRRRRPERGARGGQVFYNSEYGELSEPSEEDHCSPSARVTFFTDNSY
Sequence of AURKB (Q96GD4 whole entry): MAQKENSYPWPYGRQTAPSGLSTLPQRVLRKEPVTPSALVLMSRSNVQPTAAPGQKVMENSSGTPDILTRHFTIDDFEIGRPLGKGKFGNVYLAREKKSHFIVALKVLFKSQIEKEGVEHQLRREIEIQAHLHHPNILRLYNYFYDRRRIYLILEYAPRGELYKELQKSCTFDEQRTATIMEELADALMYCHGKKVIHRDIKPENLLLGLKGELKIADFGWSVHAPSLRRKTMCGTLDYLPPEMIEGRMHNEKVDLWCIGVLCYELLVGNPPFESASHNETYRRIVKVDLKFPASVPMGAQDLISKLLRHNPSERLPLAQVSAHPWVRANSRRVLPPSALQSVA
Sequence of CDKL2 (Q92772 whole entry): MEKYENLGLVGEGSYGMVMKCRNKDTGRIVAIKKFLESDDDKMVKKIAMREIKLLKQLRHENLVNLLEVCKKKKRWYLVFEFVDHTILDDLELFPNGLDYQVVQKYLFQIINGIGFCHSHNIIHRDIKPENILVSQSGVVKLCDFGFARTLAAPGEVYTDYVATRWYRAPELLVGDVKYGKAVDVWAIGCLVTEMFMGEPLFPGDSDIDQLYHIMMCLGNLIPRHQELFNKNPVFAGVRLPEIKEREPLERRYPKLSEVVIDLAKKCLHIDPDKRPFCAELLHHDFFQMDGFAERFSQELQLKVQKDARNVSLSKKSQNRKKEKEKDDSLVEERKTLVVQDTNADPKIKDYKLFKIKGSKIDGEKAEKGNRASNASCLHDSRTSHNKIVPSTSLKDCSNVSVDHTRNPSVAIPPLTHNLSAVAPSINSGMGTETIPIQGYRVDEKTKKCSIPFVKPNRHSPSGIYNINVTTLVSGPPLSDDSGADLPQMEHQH
T3 sequence (P27361 whole entry): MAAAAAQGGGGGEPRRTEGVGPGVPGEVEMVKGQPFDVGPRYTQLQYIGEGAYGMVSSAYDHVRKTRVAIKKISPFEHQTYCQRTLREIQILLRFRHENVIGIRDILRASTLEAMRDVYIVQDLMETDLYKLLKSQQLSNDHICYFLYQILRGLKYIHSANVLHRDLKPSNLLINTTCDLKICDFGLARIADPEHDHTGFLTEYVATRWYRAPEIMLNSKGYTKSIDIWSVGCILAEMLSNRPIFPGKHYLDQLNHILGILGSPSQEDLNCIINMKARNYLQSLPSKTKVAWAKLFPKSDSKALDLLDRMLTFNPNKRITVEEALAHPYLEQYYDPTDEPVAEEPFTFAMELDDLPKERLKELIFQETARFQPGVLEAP
T4 sequence (P36507 whole entry): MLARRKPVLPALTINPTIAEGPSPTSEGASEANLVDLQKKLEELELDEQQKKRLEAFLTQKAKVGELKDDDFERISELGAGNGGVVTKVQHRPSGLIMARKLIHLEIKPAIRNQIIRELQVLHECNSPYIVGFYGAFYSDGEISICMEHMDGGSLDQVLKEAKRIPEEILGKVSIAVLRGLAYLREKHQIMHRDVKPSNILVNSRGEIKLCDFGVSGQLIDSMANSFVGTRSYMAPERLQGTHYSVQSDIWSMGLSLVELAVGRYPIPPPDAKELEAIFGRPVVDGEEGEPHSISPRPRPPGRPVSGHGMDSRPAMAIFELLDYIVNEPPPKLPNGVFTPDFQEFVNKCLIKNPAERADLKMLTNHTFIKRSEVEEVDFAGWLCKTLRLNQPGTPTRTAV

SMILES: C[C@@H]1CC(=O)NN=C1c1ccc(NN=C(C#N)C#N)cc1 [levosimendan]
- remaining binding at 100 µM [1]: 76%
- remaining binding at 100 µM [2]: 73%
- remaining binding at 100 µM [3]: 100%
- remaining binding at 10 µM [4, 20]: 67%
- remaining binding at 100 µM [4, 21]: 27%
- remaining binding at 100 µM [5]: 83%
- remaining binding at 10 µM [6, 20]: 94%
- remaining binding at 100 µM [6, 21]: 49%
- remaining binding at 100 µM [7]: 100%
- remaining binding at 100 µM [8]: 91%
- remaining binding at 100 µM [9]: 100%
- remaining binding at 100 µM [10]: 97%
- remaining binding at 100 µM [11]: 87%
- remaining binding at 100 µM [12]: 58%
- remaining binding at 10 µM [13, 20]: 75%
- remaining binding at 100 µM [13, 21]: 28%
- remaining binding at 100 µM [14]: 100%
- remaining binding at 10 µM [15, 20]: 100%
- remaining binding at 100 µM [15, 21]: 49%
- remaining binding at 100 µM [16]: 68%
- remaining binding at 10 µM [17, 20]: 79%
- remaining binding at 100 µM [17, 21]: 50%
- remaining binding at 100 µM [18]: 70%
- remaining binding at 100 µM [19]: 62%
